Results published in ChEMBL document CHEMBL3045473, “Affinity of 3-benzylidene- and 3-cinnamylidenemyosmine analogues for Periplaneta americana nicotinic acetylcholine receptors” (J Pestic Sci, 2006).

What was measured:
[1] = biological target: T1, Nicotinic acetylcholine receptor alpha8 subunit (Periplaneta americana, UniProt H6TY12); assay: Displacement of [3H]epibatidine from nAChR in Periplaneta americana (American cockroach) nerve cords membranes incubated at 24 degC for 2 hr by liquid scintillation counting method
T1 sequence (H6TY12 whole entry): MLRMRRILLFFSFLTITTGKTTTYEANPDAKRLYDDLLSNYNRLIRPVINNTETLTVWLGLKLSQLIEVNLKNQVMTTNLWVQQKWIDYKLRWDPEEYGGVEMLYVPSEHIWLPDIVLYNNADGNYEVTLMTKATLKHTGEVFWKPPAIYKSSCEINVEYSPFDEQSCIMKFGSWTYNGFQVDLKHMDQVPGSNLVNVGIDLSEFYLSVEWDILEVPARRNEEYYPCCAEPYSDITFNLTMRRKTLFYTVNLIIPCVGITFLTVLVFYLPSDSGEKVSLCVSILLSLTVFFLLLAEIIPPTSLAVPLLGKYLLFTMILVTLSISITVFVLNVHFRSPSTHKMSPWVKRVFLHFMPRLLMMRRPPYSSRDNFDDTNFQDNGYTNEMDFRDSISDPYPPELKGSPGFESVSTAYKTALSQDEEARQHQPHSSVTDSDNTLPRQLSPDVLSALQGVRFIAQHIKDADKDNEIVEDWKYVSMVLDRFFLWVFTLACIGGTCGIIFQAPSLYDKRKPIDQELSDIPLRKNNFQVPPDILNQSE

[2] = biological target: T2, Nicotinic acetylcholine receptor alpha8 subunit (Periplaneta americana) (UniProt H6TY12); assay: Displacement of [3H]epibatidine from nAChR in Periplaneta americana (American cockroach) nerve cords membranes at 10 uM incubated at 24 degC for 2 hr by liquid scintillation counting method
T2 sequence (whole entry): T1 sequence (H6TY12 whole entry)

Structure (SMILES)	IC50 [1]	inhibition [2]
Oc1ccc(/C=C2\CCN=C2c2cccnc2)cc1	0.31 µM	–
C(=C1/CCCN=C1c1cccnc1)/c1ccccc1 [3-BENZYLIDENEANABASEINE]	0.035 µM	–
Fc1ccc(/C=C2\CCN=C2c2cccnc2)cc1	> 10 µM	22.3%
COc1cccc(/C=C2\CCN=C2c2cccnc2)c1	> 10 µM	23.6%
COc1ccccc1/C=C1\CCN=C1c1cccnc1	> 10 µM	49.5%
Clc1ccc(/C=C2\CCN=C2c2cccnc2)cc1	> 10 µM	21.5%
COc1ccc(/C=C2\CCN=C2c2cccnc2)c(O)c1	3.89 µM	–
C(=C1/CCN=C1c1cccnc1)/c1ccccc1	> 10 µM	41.3%
c1cncc(C2=NCCC2)c1 [MYOSMINE]	> 10 µM	27.3%
Oc1ccc(/C=C2\CCN=C2c2cccnc2)c(O)c1	0.12 µM	–
CN(C)c1ccc(/C=C2\CCN=C2c2cccnc2)cc1	5.49 µM	–
N#Cc1ccc(/C=C2\CCN=C2c2cccnc2)cc1	> 10 µM	31.4%
Oc1ccccc1/C=C1\CCN=C1c1cccnc1	6.9 µM	–
Oc1cccc(/C=C2\CCN=C2c2cccnc2)c1	> 10 µM	32.1%
COc1ccc(/C=C2\CCN=C2c2cccnc2)cc1	> 10 µM	31.4%
Clc1ccc(C2=NCCC/C2=C\c2ccccc2)cn1	0.0212 µM	–
COc1ccc(/C=C2\CCN=C2c2cccnc2)c(OC)c1	4.55 µM	–
CN(C)c1ccc(/C=C/C=C2\CCN=C2c2cccnc2)cc1	2.07 µM	–
C(=C\c1ccccc1)/C=C1\CCN=C1c1cccnc1 [3-CINNAMYLIDENEMYOSMINE]	3.52 µM	–
